One block for each molecule: values may come before it.
Assay: solvent given as SMILES

emission maximum (in C1CCOC1): 476 nm
Structure (SMILES): COc1cc2c(cc1-c1ccc(C)cc1)Cc1c3c(c4c(c1-2)-c1cc(OC)c(-c2ccc(C)cc2)cc1C4)C(=O)N(CCC(C)C)C3=O

emission maximum (in CCO): 428 nm
emission maximum (in ClCCl): 421 nm
Structure (SMILES): Clc1ncc(-c2c3ccccc3c(-c3cnc(Cl)nc3)c3ccccc23)cn1

emission maximum (in ClCCl): 430 nm
Structure (SMILES): c1ccc2c(c1)OB1Oc3ccccc3-c3c1c-2c1c2c3-c3ccccc3OB2Oc2ccccc2-1

emission maximum (in C1CCCCC1): 600 nm
emission maximum (in c1ccccc1): 644 nm
Structure (SMILES): CN(C)c1ccc2c(c1)C(=O)c1ccccc1-2

emission maximum (in C1CCOC1): 443 nm
Structure (SMILES): COc1cc2oc(=O)c3c4ccc(C(=O)c5ccccc5)cc4c4ccc5cccc6c(c1)c2c3c4c56

More lines, now with the values behind:

Structure (SMILES): N#Cc1c(-n2c3ccccc3c3cc(I)ccc32)c(-n2c3ccccc3c3cc(I)ccc32)c(C#N)c(-n2c3ccccc3c3cc(I)ccc32)c1-n1c2ccccc2c2cc(I)ccc21
emission maximum (in Cc1ccccc1): 548 nm

Structure (SMILES): CN1C(=CC2=C([O-])C(=CC3=[N+](C)c4ccccc4C3(C)C)C2=C(C#N)C#N)C(C)(C)c2ccccc21
emission maximum (in ClC(Cl)Cl): 700 nm

Structure (SMILES): [NH3+]C(Cc1ccc(O)cc1)C(=O)[O-] (centres undefined)
emission maximum (in O): 304 nm

Structure (SMILES): O=c1cc2c(Br)c(O)c3cccc4ccc(o1)c2c43
emission maximum (in CC1CCCO1): 484 nm

Structure (SMILES): COc1ccc(-n2nc(C#N)c(N3CCCCC3)n2)cc1
emission maximum (in CC#N): 415 nm

Structure (SMILES): O=C(O)CCCCCn1c2ccccc2c(=O)c2cc(S(=O)(=O)O)ccc21
emission maximum (in O): 428 nm

Structure (SMILES): O=C1c2cc(F)ccc2-c2cnccc21
emission maximum (in CC#N): 540.43 nm
emission maximum (in CCCCCC): 486.26 nm

Structure (SMILES): c1ccc(-c2nc(-c3ccccc3)nc(-c3ccc(-n4c5ccc(-n6c7ccccc7c7ccccc76)cc5c5ccc6c(c7ccccc7n6-c6ccccc6)c54)cc3)n2)cc1
emission maximum (in Cc1ccccc1): 463.87 nm

Structure (SMILES): COc1ccc(C2=N/C(=C\c3ccc(C#N)cc3)C(=O)N2)cc1OC
emission maximum (in C1COCCO1): 482 nm

Structure (SMILES): CC(=O)c1ccc(/C=C/C=C/C2=NC3C(=O)NC(N)=NC3N2[C@H]2C[C@H](O)[C@@H](CO)O2)cc1 (some centres undefined)
emission maximum (in C1COCCO1): 494 nm
emission maximum (in CC#N): 547 nm
emission maximum (in CO): 554 nm

Structure (SMILES): Cc1cccc2nc(-c3cc(=O)c(OCc4ccccc4)co3)c(NC3CCCCC3)n12
emission maximum (in ClCCl): 476 nm

Structure (SMILES): CC(C)(C)c1ccc2c(c1)c1cc(C(C)(C)C)ccc1n2-c1ccc(-n2c3ccc(C(C)(C)C)cc3c3cc(C(C)(C)C)ccc32)c(-c2nccnc2C#N)c1
emission maximum (in Cc1ccccc1): 503 nm
emission maximum (in c1cc(-n2c3ccccc3c3ccccc32)cc(-n2c3ccccc3c3ccccc32)c1): 493 nm

Structure (SMILES): CC(C)(C)c1ccc(-c2cc(-c3ccc(-c4cc(-c5ccc(C(C)(C)C)cc5)c(C(=O)NC5CCCCC5)s4)s3)sc2C(=O)NC2CCCCC2)cc1
emission maximum (in ClCCl): 448 nm

— the Deep4Chem optical property database
